Read-outs that look alike come from different tables or passages of the source.
Experiments:
[1] = test system: promastigotes of Lmex^ΔNT1+TcrNT2; test: Resazurin-based assay on Cas9^ΔNT1+TcrNT2 promastigotes; type: cell-based, Leishmania mexicana; settings: for EC50: Leishmania mexicana, read-out: Lmex^ΔNT1+TcrNT2 EC50 (μM)
Method: (§1) Bloodstream trypomastigotes of the Y strain (DTU II) were obtained by cardiac puncture of infected Swiss Webster mice on the parasitemia peak to perform drug sensitivity assays. Trypomastigote forms of the Tulahuen-β gal strain were collected from the supernatant of previously infected L929 cell cultures (host/parasite cell ratio 10:1). The intracellular forms T. cruzi were studied by the infection of L929 and H9C2 (2D and 3D) cell cultures infected for 48 and 24 h with trypomastigotes of Tulahuen-β gal and Y strains, respectively. The Leishmania mexicana-Cas9 T7 strain (LmexCas9) was derived from L. mexicana WT promastigotes by expression of the Streptococcus pyogenes Cas9 nuclease gene ‘Cas9′ and maintained on 32 μg/mL hygromycin [51]. This strain and the derived strains Cas9^ΔNT1 and Cas9^ΔNT1+TcrNT2 were cultured in HOMEM medium supplemented with 10% of FBS and 1% Penicillin-Streptomycin antibiotic in unvented flasks at 25 °C [52]. The Cas9^ΔNT1 strain is identical to Cas9 except that the LmexNT1.1/NT1.2 locus encoding the L. mexicana adenosine/ pyrimidine transporters was excised using Cas9 [17, 40]. Cas9^ΔNT1+TcrNT2 is the further modification of that strain by the expression of the T. cruzi nucleoside transporter 2 (TcrNT2) gene in it, using the vector pNUS-HcN [53]. Appropriate antibiotics were added for the selection and maintenance of transfectants.
The EC50 values for nucleoside analogues against Leishmania mexicana promastigotes of the Cas9, Cas9^ΔNT1 and Cas9^ΔNT1+TcrNT2 strains used a resazurin-based assay, as described. Briefly, the assays were performed in standard HOMEM medium and culture conditions, in white opaque 96-well plates. For each test compound (stored as a 40 mM stock solution in 100% DMSO at −20 °C), a doubling dilution was performed over 2 rows of the plate, keeping the last well free as no-drug control with HOMEM only (23 doubling dilutions; highest concentration 100 µM). To each well, 100 µL of HOMEM containing 2 × 10^5 cells of the appropriate L. mexicana line was added, and the plates incubated for 72 h at 25 °C, followed by the addition of 20 µL of resazurin solution and further incubation for 48 h. Fluorescence was read on a FLUOstar OPTIMA plate reader (BMG Labtech, Germany), at an excitation wavelength of 544 nm and an emission wavelength of 620 nm. The EC50 values were determined by the GraphPad Prism 8.0 software using an equation for a sigmoid curve with variable slope. Pentamidine was used as positive control, and every experiment was independently performed at least 3 times independently.

H9C2 3D cultures = test: Cardiotoxicity on H9C2 organoids (3D), PrestoBlue; type: cell-based, rat; settings: 95% confidence interval in brackets
From the text: (§2) L929 cell lines were used to evaluate the effect of the nucleoside derivatives on the cellular viability of mammalian host cells and to assess their activity against intracellular forms of T. cruzi (Tulahuen strain expressing E. coli β-galactosidase gene, DTU VI) as reported. 2D and 3D culture systems of rat cardiomyoblast cell lines (H9C2(2-1)) were used to evaluate cardiotoxicity and to test the derivatives’ activity on intracellular forms (Y strain, DTU II). In all assays, the cell cultures were maintained at 37 °C under an atmosphere of 5% CO2.
L929 cells seeded in sterile 96-well microtiter plates were exposed or not to increasing concentrations (up to 200 µM) of the compounds. After seven days of incubation, the cell growth of treated cultures was compared to untreated control cells (100% cell growth). Cellular viability was assessed through AlamarBlue® (resazurin sodium salt) colorimetric assay, and the results were expressed as % reduction in cell growth/viability compared to untreated control, and an IC50 value determined. For the assays using H9C2 cultures, 25 × 10^3 cells/well were seeded in a 96-well microtiter plates (flat and U bottoms, precoated with agarose 1% for preparing 2- and 3D matrices, respectively) and maintained at 37 °C [48, 54].
The cardiac cultures were exposed or not to increasing concentrations of the nucleoside derivatives (up to 300 µM), and after seven days of incubation, their physiology and morphology was evaluated by light microscopy. Cell viability was measured using the PrestoBlue® (PB) colorimetric assay, the results evaluated as % reduction in cell growth/viability compared to untreated control, and an IC50 value determined. The data results from at least two independent experiments done in at least duplicates.

[2] = test system: intracellular forms of T. cruzi (Y strain) in 2D H9C2; test: Activity against T. cruzi (Y strain) infection of H9C2 monolayers (2D); type: cell-based, Trypanosoma cruzi; settings: 10 µM, seven days of incubation, 95% confidence interval in brackets
From the text: as §2, §1
In an initial step, nucleoside derivatives were assayed against intracellular forms of Tulahuen-β gal strain in L929 cell lines. Assays were performed in sterile 96-well microtiter plates with 4 × 10^3 cells/well and 4 × 10^4 parasites/well (host/parasite cell ratio 1:10). […] Parasite burden was analyzed by adding the substrate CPRG (chlorophenol red ß-D-galactopyranoside) followed by measurements (spectrophotometrically) at 570 nm. The results were expressed as percentage of reduction in parasite growth compared to untreated cells, and EC50 values were calculated. […] After seven days of treatment, the cultures were fixed, stained with Giemsa, and 200 cells were quantified by light microscopy. The results were expressed as % of reduction in parasite burden. […]

[3] = Rattus norvegicus, H9c2, 168 h, read-out: Cardiotoxic profile IC50 (µM) 3D, 3D H9C2, seven days of compound incubation
[4] = read-out: Cardiotoxic profile IC50 (µM) 3D, 3D H9C2, seven days of compound incubation

Compound | EC50 [1] [µM] | Lmex^ΔNT1+TcrNT2 Sensitization (fold) ([1]; ratio of the EC50 values of the Cas9^ΔNT1 and Cas9^ΔNT1+TcrNT2 strains) | IC50 (H9C2 3D cultures; [3]) [µM] | IC50 (H9C2 3D cultures; [4]) [µM] | % of Death Rate by Light Microscopy Quantification 2D [2]
Nc1ncnc2c1c(-c1ccc(Cl)c(Cl)c1)cn2[C@@H]1O[C@H](CO)C[C@H]1O [FH8513, 7-(3,4-dichlorophenyl)-3′-deoxytubercidin] | 31.1 ± 0.5 | 3.2 | 199 | 200 | 99.14 (97.9 to 100) %
Nc1ncnc2c1c(-c1ccc(Cl)c(F)c1)cn2[C@@H]1O[C@H](CO)[C@@H](O)[C@H]1O [FH10714, 7-(3-fluoro,4-chlorophenyl)tubercidin] | > 100 |  | 180 | 181 | 100%
O=C(Cn1ccnc1[N+](=O)[O-])NCc1ccccc1 [Bz, Benznidazole, reference compound] |  |  | > 200 |  | 100%
Nc1ncnc2c1c(-c1ccc(F)c(F)c1)cn2[C@@H]1O[C@H](CO)[C@@H](O)[C@H]1O [FH11706, 7-(3,4-Difluorophenyl)tubercidin] |  |  | > 200 |  | 99.25 (98.83 to 99.67) %

From article PMC9695592, “Phenotypic Evaluation of Nucleoside Analogues against Trypanosoma cruzi Infection: In Vitro and In Vivo Approaches” (Molecules, 2022)
